The values below come from ChEMBL document CHEMBL2429824, “Computer-assisted design of dual-target anti-HIV-1 compounds” (Med Chem Res, 2013).

For orientation: IC50 means the concentration needed to halve the response being measured. A higher IC50 goes with lower potency.

For the first experiment, the system named is Human immunodeficiency virus 1. Put plainly: Antiviral activity against HIV-1 infected in human MT-4 cells. The experiment is classed as functional, organism-based. To be noted: Human immunodeficiency virus 1, MT4.
`[N-]=[N+]=N[C@H]1C[C@H](n2cnc3nc(N)nc(N4CCCC4)c32)O[C@@H]1CO` showed an IC50 of 7.94 µM.
As to `[N-]=[N+]=N[C@H]1C[C@H](n2cnc3nc(N)nc(O)c32)O[C@@H]1CO`, the IC50 is 5.01 µM. Against the preceding compound, the IC50 is about 1.6-fold lower.
On to `COc1nc(N)nc2ncn([C@H]3C[C@H](N=[N+]=[N-])[C@@H](CO)O3)c12`, for which the IC50 is 8.91 µM.
Same read-out and setting: as for `CCOc1nc(N)nc2ncn([C@H]3C[C@H](N=[N+]=[N-])[C@@H](CO)O3)c12`, the figure is 22.9 µM; as for `CCCOc1nc(N)nc2ncn([C@H]3C[C@H](N=[N+]=[N-])[C@@H](CO)O3)c12`, 8.91 µM; as for `CC(C)Oc1nc(N)nc2ncn([C@H]3C[C@H](N=[N+]=[N-])[C@@H](CO)O3)c12`, 21.9 µM.
In turn, `CCCCOc1nc(N)nc2ncn([C@H]3C[C@H](N=[N+]=[N-])[C@@H](CO)O3)c12` had an IC50 of 19.1 µM.
On the same count and under the same terms, as for `[N-]=[N+]=N[C@H]1C[C@H](n2cnc3nc(N)nc(OC4CCC4)c32)O[C@@H]1CO`, the figure is 5.01 µM; as for `[N-]=[N+]=N[C@H]1C[C@H](n2cnc3nc(N)nc(Oc4ccccc4)c32)O[C@@H]1CO`, 28.2 µM; as for `[N-]=[N+]=N[C@H]1C[C@H](n2cnc3nc(N)nc(OCc4ccccc4)c32)O[C@@H]1CO`, 7.94 µM.
`[N-]=[N+]=N[C@H]1C[C@H](n2cnc3nc(N)nc(N)c32)O[C@@H]1CO` had a concentration for half-maximal inhibition (IC50) of 2 µM.
Turning to `CNc1nc(N)nc2ncn([C@H]3C[C@H](N=[N+]=[N-])[C@@H](CO)O3)c12`, 52.5 µM corresponded to half-maximal inhibition (IC50). This IC50 lies about 26-fold higher than the previous one.
Take `CCNc1nc(N)nc2ncn([C@H]3C[C@H](N=[N+]=[N-])[C@@H](CO)O3)c12`: it took 17 µM to reach half-maximal inhibition (IC50). Compared with the last compound, the IC50 is about 3.1-fold lower.
Same read-out and setting: the value for `CCCNc1nc(N)nc2ncn([C@H]3C[C@H](N=[N+]=[N-])[C@@H](CO)O3)c12` was 12 µM.
As to `[N-]=[N+]=N[C@H]1C[C@H](n2cnc3nc(N)nc(NC4CC4)c32)O[C@@H]1CO`, the midpoint of inhibition, the IC50, lay at 18.2 µM.
On to `CCCCNc1nc(N)nc2ncn([C@H]3C[C@H](N=[N+]=[N-])[C@@H](CO)O3)c12`, for which it took 28.8 µM to reach half-maximal inhibition (IC50).
`[N-]=[N+]=N[C@H]1C[C@H](n2cnc3nc(N)nc(NC4CCC4)c32)O[C@@H]1CO` showed an IC50 of 14.1 µM.
Regarding `[N-]=[N+]=N[C@H]1C[C@H](n2cnc3nc(N)nc(NCCc4ccccc4)c32)O[C@@H]1CO`, the concentration for half-maximal inhibition (IC50) is 112 µM.
On to `CN(C)c1nc(N)nc2ncn([C@H]3C[C@H](N=[N+]=[N-])[C@@H](CO)O3)c12`, for which the midpoint of inhibition, the IC50, lay at 20.9 µM.
`CCN(C)c1nc(N)nc2ncn([C@H]3C[C@H](N=[N+]=[N-])[C@@H](CO)O3)c12` gave a half-maximal inhibitory concentration (IC50) of 12 µM.
In the case of `CCCN(C)c1nc(N)nc2ncn([C@H]3C[C@H](N=[N+]=[N-])[C@@H](CO)O3)c12`, the IC50 was 11 µM.
As for `CN(c1nc(N)nc2ncn([C@H]3C[C@H](N=[N+]=[N-])[C@@H](CO)O3)c12)C1CC1`, the IC50 is 3.98 µM. Compared with the last compound, the IC50 is about 2.8-fold lower.
In turn, `[N-]=[N+]=N[C@H]1C[C@H](n2cnc3nc(N)nc(N4CCC4)c32)O[C@@H]1CO` showed an IC50 of 8.91 µM.
`[N-]=[N+]=N[C@H]1C[C@H](n2cnc3nc(N)nc(Cl)c32)O[C@@H]1CO` showed an IC50 of 6.03 µM.
Turning to `N#Cc1c(N)cccc1S(=O)(=O)c1cccc(C(F)(F)F)c1`, the IC50 is 34.7 µM. Against the preceding compound, the IC50 is about 5.8-fold higher.
For the compound `COc1cccc(S(=O)(=O)c2cccc(N)c2C#N)c1`, the IC50 was 0.912 µM.

The target of a further experiment is Human immunodeficiency virus type 1 reverse transcriptase (Human immunodeficiency virus 1, UniProt Q72547). Put plainly: Inhibition of HIV-1 reverse transcriptase.
Settings: not given
Compound `N#Cc1c(N)cccc1[S+]([O-])c1cc(Cl)ccc1Cl` (centres undefined) had an IC50 of 6.31 µM. This lies in the single-digit micromolar range.
Take `COc1ccc(S(=O)(=O)c2cccc(N)c2C#N)cc1`: the IC50 is 13.2 µM.
`COc1cc([S+]([O-])c2cccc(N)c2C#N)cc(C(F)(F)F)c1` (centres undefined) gave a half-maximal inhibitory concentration (IC50) of 0.912 µM.
